Assay results taken from patent publication US7091199B1, “Thienoisoxazole phenoxy unsubstituted ethyl and propyl derivatives useful as d4 antagonists” (Aventis Pharmaceuticals Inc., priority 1999, dated 2006).
Structures can show the parent of a compound that is named as a salt. Where two headings read alike, the source gives them in different places.

Columns and labels:
[1] = biological target: T1, human D4 receptor (D4.2 sub-type) (Homo sapiens, UniProt P21917, DEL271-302); experiment: D4 receptor binding assay (3H-spiperone displacement); conditions: for Ki: 3H-spiperone 0.25 nM, HEK cell membranes, human D4.2, read-out: D4 RBA Ki; for inhibition at 1 µM: @ 1 μM test compound, 3H-spiperone binding, read-out: D4 RBA % Inhibition (@ 1 μM)
T1 sequence (P21917 with tags, fused parts or gaps DEL271-302): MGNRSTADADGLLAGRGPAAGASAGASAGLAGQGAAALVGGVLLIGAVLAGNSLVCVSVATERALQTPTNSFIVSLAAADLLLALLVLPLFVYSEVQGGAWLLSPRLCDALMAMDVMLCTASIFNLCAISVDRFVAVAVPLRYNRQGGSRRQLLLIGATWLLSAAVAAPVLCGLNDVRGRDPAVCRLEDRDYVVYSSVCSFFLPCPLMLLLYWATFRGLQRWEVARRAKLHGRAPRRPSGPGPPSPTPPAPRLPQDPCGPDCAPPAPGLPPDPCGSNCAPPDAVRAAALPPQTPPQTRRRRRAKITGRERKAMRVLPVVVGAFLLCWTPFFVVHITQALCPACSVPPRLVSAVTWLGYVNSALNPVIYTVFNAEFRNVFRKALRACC
Protocol: D4 receptor-binding affinities of the compounds were evaluated according to their ability to reduce binding of ^3H-spiperone as compared to the reference compound clozapine. The potency of the test compound to reduce ^3H-spiperone binding directly correlated to its binding affinity for the receptor.
[…] (human embryonic kidney) cells stably transfected with human D4 receptor (D4.2 sub-type) were grown in NUNC cell factories for 5 days (75% confluency) without a media change and removed with versene (approximately 19 mg of cells per cell factory tray). The cells were then centrifuged in a Sorval centrifuge for 10 min, 5000 rpm (GS3 rotor) and the pellets quickly frozen in liquid nitrogen and stored at −80° C. until used in binding assay. When used in the assay, cells were thawed on ice for 20 min and then 10 mL of incubation buffer (50 mM Tris, 1 mM EDTA, 4 mM MgCl2, 5 mM KCl, 1.5 mM CaCl2, 120 mM NaCl, pH 7.4) was added. The cells were then vortexed to resuspend pellet and homogenized with a Kinematica, CH-6010 Kriens-LU, homogenizer for 15 seconds at setting 7. Concentration of receptor protein was determined using the Pierce BCA assay.
The incubation was started by the addition of 100 μl (50 μg protein) membrane homogenate to a solution of 300 μl incubation buffer and 100 μl (0.25 nM final conc.) ^3H-spiperone (90 Ci/mmol, Amersham, diluted in borosilicate glass vial) in 96-well polypropylene plates (1 mL per well). The plates were vortexed and incubated at room temperature for 90 minutes. The binding reaction was stopped by filtering using a Packard Harvester. The samples were filtered under vacuum over glass fibre filter plates (Whatman GF/B) presoaked for 2 hours in 0.3% polyethylenimine (PEI) in 50 mM Tris buffer (pH 7.4). The filters were then washed 6 times with 7 mL ice cold 50 mM Tris buffer (pH 7.4). The filter plates were dried overnight and 35 μl of Microscint-O (Packard) was added. The plates were sealed and counted in the Packard Top Count (3 minutes per well).
The incubation was started by the addition of 100 μl (50 μg protein) membrane homogenate to a solution of 200 μl incubation buffer, 100 μl ^3H-spiperone (90 Ci/mmol, Amersham, diluted in borosilicate glass vial to 0.25 nM final conc.) and 100 μl (30 μM final conc.) of fresh dopamine (Research Biochemicals Inc., light protected and dissolved in incubation buffer) in 96-well polypropylene plates (1 mL per well). The plates were vortexed and incubated at room temperature for 90 minutes at which time the binding reaction was stopped by filtering. The filters were washed and counted using the same procedure as in the total binding assay described above to give the non-specific binding value (NSB).
The incubation was started by the addition, in 96-well polypropylene plates (1 mL per well), of 100 μl (50 μg protein) membrane homogenate to a solution of 200 μl incubation buffer, 100 μl (0.25 nM final conc.) ^3H-spiperone (90 Ci/mmol, Amersham, diluted in borosilicate glass vial) and 100 μl of test compound that was prepared from 1 mM stock dissolved in DMSO and stored at −20° C. in polypropylene cryogenic storage vials until dilution in incubation buffer in 96-well polypropylene plates. The plates were vortexed and incubated at room temperature for 90 minutes at which time the binding reaction was stopped by filtering. The filters were washed and counted using the same procedure as in the total binding assay described above to give the displacement binding value (BD).
The test compounds were initially assayed at 1 and 0.1 μM and then at a range of concentrations chosen such that the middle dose would cause about 50% inhibition of ^3H-spiperone binding. Specific binding in the absence of test compound (B0) was the difference of total binding (BT) minus non-specific binding (NSB) and similarly specific binding (in the presence of test compound) (B) was the difference of displacement binding (BD) minus non-specific binding (NSB). […]

[2] = tested on: CD-1 or C57 male mice (MK-801 induced stereotypy); experiment: MK-801 Stereotypy in Mice; type: in vivo; conditions: for inhibition in vivo at 20 mg/kg: read-out: Antag. of MK 801 Stereotypy % Inhib. @ 20 mg/kg
Protocol: Mk-801 dose-dependently induces characteristic stereotypy marked by locomotion and falling behavior. This MK-801 induced behavior can be antagonized by novel neuroleptic agents. This assay can also assess time course effects following drug administration.
CD-1 or C57 male mice are individually placed in activity boxes (8 mice/drug) and allowed to acclimate for 60 minutes. The mice are then administered test compounds either i.p., s.c., or p.o., at 15, 30, or 60 minutes prior to MK-801 (0.2 mg/kg) administration. Mice are observed for the presence of locomotion and falling behaviors 15 minutes following MK-801. For the duration of action studies the test compounds are administered i.p., s.c., or p.o., at 30, 60, 120, 180, and 240 minutes prior to MK-801 administration.

Compound	Ki [1] [nM]	inhibition at 1 µM [1] [%]	other results
Fc1cccc(CNCCOc2cccc(-c3noc4ccsc34)c2)c1.O=C(O)/C=C\C(=O)O [Compound 32, (3-fluoro-benzyl)-[2-(3-thieno[2,3-d]isoxazol-3-yl-phenoxy)-ethyl]-amine maleate]	10.5		Antag. of MK 801 Stereotypy % Inhib. @ 20 mg/kg ([2]; PO, 20 mg/kg): 62.5%
c1cnc(N2CCN(CCCOc3cccc(-c4noc5ccsc45)c3)CC2)nc1 [Compound 13, 3-{3-[3-(4-pyrimidin-2-yl-piperazin-1-yl)-propoxy]-phenyl}-thieno[2,3-d]isoxazole]	55		inhibition in vivo at 20 mg/kg ([2]; Mus musculus, ip, 20 mg/kg): 37.5%
Fc1cccc(F)c1CNCCOc1cccc(-c2noc3ccsc23)c1 [Compound 50, (2,6-difluoro-benzyl)-[2-(3-thieno[2,3-d]isoxazol-3-yl-phenoxy)-ethyl]-amine]		65	
c1cc(OCCCNC23CC4CC(CC(C4)C2)C3)cc(-c2noc3ccsc23)c1 [Compound 53, adamantan-1-yl-[3-(3-thieno[2,3-d]isoxazol-3-yl-phenoxy)-propyl]-amine]		94	
c1cc(OCCN2CCc3ccccc3C2)cc(-c2noc3ccsc23)c1 [Compound 29, 2-[2-(3-thieno[2,3-d]isoxazol-3-yl-phenoxy)-ethyl]-1,2,3,4-tetrahydroisoquinoline]		60	
FC(F)(F)c1ccc(CNCCCOc2cccc(-c3noc4ccsc34)c2)cc1 [Compound 58, [3-(3-thieno[2,3-d]isoxazol-3-yl-phenoxy)-propyl]-(4-trifluoromethylbenzyl)-amine]		77	
Fc1ccccc1N1CCN(CCCOc2cccc(-c3noc4ccsc34)c2)CC1 [Compound 12, 3-(3-{3-[4-(2-fluoro-phenyl)-piperazin-1-yl]-propoxy}-phenyl)-thieno[2,3-d]isoxazole]		94	
c1cc(OCCCNC2CCc3ccccc32)cc(-c2noc3ccsc23)c1 (stereo not shown) [Compound 43]		94	
c1cc(OCCNC2CCc3ccccc32)cc(-c2noc3ccsc23)c1 (stereo not shown) [Compound 38, indan-1-yl-[2-(3-thieno[2,3-d]isoxazol-3-yl-phenoxy)-ethyl)-amine]		95	
c1ccc(N2CCN(CCCOc3cccc(-c4noc5ccsc45)c3)CC2)cc1 [Compound 10, 3-{3-[3-(4-phenyl-piperazin-1-yl)-propoxy]-phenyl}-thieno[2,3-d]isoxazole]		95	
FC(F)(F)c1ccccc1CNCCOc1cccc(-c2noc3ccsc23)c1 [Compound 51, [2-(3-thieno[2,3-d]isoxazol-3-yl-phenoxy)-ethyl]-(2-trifluoromethylbenzyl)-amine]		58	
Clc1ccccc1CNCCOc1cccc(-c2noc3ccsc23)c1 [Compound 35, (2-chloro-benzyl)-[2-(3-thieno[2,3-d]isoxazol-3-yl-phenoxy)-ethyl]-amine]		88	
Fc1ccc(CNCCOc2cccc(-c3noc4ccsc34)c2)cc1F [Compound 37, (3,4-difluoro-benzyl)-[2-(3-thieno[2,3-d]isoxazol-3-yl-phenoxy)-ethyl]-amine]	32		
CCCC1CCN(CCOc2cccc(-c3noc4ccsc34)c2)CC1 [Compound 60, 3-{3-[2-(4-propyl-piperidin-1-yl)-ethoxy]-phenyl}-thieno[2,3-d]isoxazole]		82	
CC1CCN(CCOc2cccc(-c3noc4ccsc34)c2)CC1 [Compound 59, 3-{3-[2-(4-methyl-piperidin-1-yl)-ethoxy]-phenyl}-thieno[2,3-d]isoxazole]		90	
COc1ccccc1CNCCOc1cccc(-c2noc3ccsc23)c1 [Compound 21, (2-methoxy-benzyl)-[2-(3-thieno[2,3-d]isoxazol-3-yl-phenoxy)-ethyl]-amine]	14.2		

More lines, main results first:

Ki [1] [nM]	inhibition at 1 µM [1] [%]	Compound	other results
17		Fc1ccc(CNCCCOc2cccc(-c3noc4ccsc34)c2)cc1 [Compound 3, (4-fluoro-benzyl)-[3-(3-thieno[2,3-d]isoxazol-3-yl-phenoxy)-propyl]-amine]	inhibition in vivo at 20 mg/kg ([2]; Mus musculus, po, 20 mg/kg): 37.5%
5.27		Cc1ccc(CNCCOc2cccc(-c3noc4ccsc34)c2)cc1 [Compound 20, (4-methyl-benzyl)-[2-(3-thieno[2,3-d]isoxazol-3-yl-phenoxy)-ethyl]-amine]	inhibition in vivo at 20 mg/kg ([2]; Mus musculus, po, 20 mg/kg): 37.5%
18		c1cc(OCCCNCc2ccsc2)cc(-c2noc3ccsc23)c1 [Compound 7, [3-(3-thieno[2,3-d]isoxazol-3-yl-phenoxy)-propyl]-thiophen-3-yl-methylamine]	inhibition in vivo at 20 mg/kg ([2]; Mus musculus, po, 20 mg/kg): 75%
45		Clc1ccc(CNCCCOc2cccc(-c3noc4ccsc34)c2)cc1 [Compound 4, (4-chloro-benzyl)-[3-(3-thieno[2,3-d]isoxazol-3-yl-phenoxy)-propyl]-amine]	
62		Fc1ccccc1CNCCCOc1cccc(-c2noc3ccsc23)c1 [Compound 2, (2-fluoro-benzyl)-[3-(3-thieno[2,3-d]isoxazol-3-yl-phenoxy)-propyl]-amine]	
12		Fc1ccc(CNCCOc2cccc(-c3noc4ccsc34)c2)cc1 [Compound 17, (4-fluoro-benzyl)-[2-(3-thieno[2,3-d]isoxazol-3-yl-phenoxy)-ethyl]-amine]	ED50 ([2]; Mus musculus, PO, MK-801 stereotypy, read-out: In Vivo ED50): 14.1 mg/kg; inhibition in vivo at 20 mg/kg ([2]; Mus musculus, po, 20 mg/kg): 62.5%
15		Fc1cccc(CNCCOc2cccc(-c3noc4ccsc34)c2)c1 [Compound 19, (3-fluoro-benzyl)-[2-(3-thieno[2,3-d]isoxazol-3-yl-phenoxy)-ethyl]-amine]	inhibition in vivo at 20 mg/kg ([2]; Mus musculus, po, 20 mg/kg): 75%
15		c1cc(OCCNCc2ccsc2)cc(-c2noc3ccsc23)c1 [Compound 33, [2-(3-thieno[2,3-d]isoxazol-3-yl-phenoxy)-ethyl]-thiophen-3-ylmethylamine hydrochloride]	
44		COc1cccc(CNCCCOc2cccc(-c3noc4ccsc34)c2)c1 [Compound 41, (3-methoxy-benzyl)-[3-(3-thieno[2,3-d]isoxazol-3-yl-phenoxy)-propyl]-amine]	
92		COc1ccc(CNCCCOc2cccc(-c3noc4ccsc34)c2)cc1 [Compound 5, (4-methoxy-benzyl)-[3-(3-thieno[2,3-d]isoxazol-3-yl-phenoxy)-propyl]-amine]	
